From patent US10669271B2, “Heterocyclic compounds as immunomodulators” (Incyte Corporation, priority 2018, dated 2020)

Legend:
PD-1/PD-L1 = PD-1/PD-L1 (Homo sapiens (Human), UniProt Q9NZQ7); test: Homogeneous Time-Resolved Fluorescence (HTRF) PD-1/PD-L1 binding assay; conditions: recombinant human PD-1 and PD-L1, 25° C., pH 7.4
Protocol: Example A. Homogeneous Time-Resolved Fluorescence (HTRF) PD-1/PD-L1 Binding Assay
The assays were conducted in a standard black 384-well polystyrene plate with a final volume of 20 μL. Inhibitors were first serially diluted in DMSO and then added to the plate wells before the addition of other reaction components. The final concentration of DMSO in the assay was 1%. The assays were carried out at 25° C. in the PBS buffer (pH 7.4) with 0.05% Tween-20 and 0.1% BSA. Recombinant human PD-L1 protein (19-238) with a His-tag at the C-terminus was purchased from AcroBiosystems (PD1-H5229). Recombinant human PD-1 protein (25-167) with Fc tag at the C-terminus was also purchased from AcroBiosystems (PD1-H5257). PD-L1 and PD-1 proteins were diluted in the assay buffer and 10 μL was added to the plate well. Plates were centrifuged and proteins were preincubated with inhibitors for 40 minutes. The incubation was followed by the addition of 10 μL of HTRF detection buffer supplemented with Europium cryptate-labeled anti-human IgG (PerkinElmer-AD0212) specific for Fc and anti-His antibody conjugated to SureLight®-Allophycocyanin (APC, PerkinElmer-AD0059H). After centrifugation, the plate was incubated at 25° C. for 60 min. before reading on a PHERAstar FS plate reader (665 nm/620 nm ratio). Final concentrations in the assay were—3 nM PD1,10 nM PD-L1, 1 nM europium anti-human IgG and 20 nM anti-His-Allophycocyanin. IC50 determination was performed by fitting the curve of percent control activity versus the log of the inhibitor concentration using the GraphPad Prism 5.0 software.

PD-L1 = PD-L1 (Homo sapiens (Human), UniProt Q9NZQ7); test: PD-L1 whole blood internalization assay; assay type: cell-based; conditions: 1 ng/ml human interferon γ, PD-L1 expression on CD14+ cells, read-out: Whole Blood (24 HR) IC50
PD-L1, sequence (Q9NZQ7 19-290): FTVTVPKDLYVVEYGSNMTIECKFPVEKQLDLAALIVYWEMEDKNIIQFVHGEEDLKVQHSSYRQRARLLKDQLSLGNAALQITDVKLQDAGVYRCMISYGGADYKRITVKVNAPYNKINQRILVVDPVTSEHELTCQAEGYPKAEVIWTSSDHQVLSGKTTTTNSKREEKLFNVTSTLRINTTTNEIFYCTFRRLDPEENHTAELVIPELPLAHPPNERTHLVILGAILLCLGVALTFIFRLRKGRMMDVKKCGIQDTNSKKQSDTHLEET
Protocol: Example D. PD-L1 Whole Blood Internalization Assay
To determine PD-L1 internalization in human whole blood, normal human blood (Biological Specialty Corp, Colmar. Pa.) was incubated in the presence or absence of a concentration range of test compounds and 1 ng/ml human interferon γ (R&D Systems Inc. Minn. […] Blood was then stained with PD-L1 (MIH1, eBioscience; or BD Biosciences San Jose, Calif.), CD14 (Life Technologies, Carlsbad, Calif.) for 30 minutes in the dark at room temperature. Whole Blood/red cells were lysed/fixed (lysis buffer BD Biosciences) for 5 minutes at 37° C. in the dark and then centrifuged at 1600 RPM for 5 minutes. Cells were resuspended in Stain Buffer (BD Bioscience, San Jose, Calif.) and transferred into 96 well round bottom plates (Corning). Cells were gated on CD14+(BD Biosciences) and PD-L1 expression determined by mean fluorescence intensity (MFI) (BD LSRFortessa™ X-20). IC50 determination was performed by fitting the curve of compound percent inhibition versus the log of the compound concentration using the GraphPad Prism 7.0 software.

[1] = tested on: PD-L1 aAPC/CHO-K1 cells and Jurkat-PD-1-NFAT effector cells; test: Nuclear factor of activated T-cells (NFAT) assay; assay type: cell-based; conditions: Cricetulus griseus; PD-L1 aAPC/CHO-K1 cells with Jurkat-PD-1-NFAT effector cells, 24 hours
Protocol: Example C. Nuclear Factor of Activated T-Cells (NFAT) Assay
PD-L1 aAPC/CHO-Klcells (Promega) were maintained in F-12 medium with addition of 10% FBS, 200 μg/ml Hygromycin B, 250 μg/ml Geneticin (G418). Jurkat-PD-1-NFAT effector cells (Promega) were cultured in RPMI 1640 medium supplemented with 10% FBS, 100 μg/ml Hygromycin B, 500 μg/ml G418. The culture media of PD-L1 aAPC/CHO-K1 cells were first replaced with assay medium (RPMI1640 medium with 1% FBS). The PD-L1 aAPC/CHO-K1 cells were then added in a white 384-well white clear bottom assay plate (CELLCOAT® Tissue Culture Plates, Greiner Bio-One) at 8000 per well in 10 μL assay medium. Test compounds were prepared by serial dilution in DMSO and 0.8 μL test compounds in DMSO were first transferred to the 384 REMP plate well (Thermofisher) by PlateMate Plus (Thermofisher) followed with addition of 50 μL plating medium. 5 μL compounds in the assay medium were transferred to the cells with 0.4% DMSO in the final assay at 2 μM. After removing the culture media, 10,000 Jurkat-PD-1-NFAT effector cells in 5 μL assay medium was dispensed into each well. The assay plate was incubated at 37° C., 5% CO2 for 24 hours. After the assay plate was equilibrated to room temp for 15 minutes, 20 µL/well of Bio-Glo™ reagent (Promega) were added. After 8 minutes incubation at room temperature, luminescence was read at with Pherastar microplate reader (BMG Labtech). The fold of induction (FOI) was calculated based on the ratio of luminescence normalized to the DMSO wells within each assay plate. The maximum percentage of induction was reported based on the ratio between the highest FOI of each compound and the maximum FOI of control compound within each assay plate. Wells with DMSO were served as the negative controls and wells containing control compound with the highest FOI were used as positive controls. EC50 determination was performed by fitting the curve of percent control activity versus the log of the compound concentration using the GraphPad Prism 6.0 software.

[2] = tested on: U2OS/PD-L1 cells and Jurkat-PD-1-SHP cells; test: Src homology region 2 domain-containing phosphatase (SHP) assay; assay type: cell-based; conditions: Homo sapiens; U2OS/PD-L1 cells with Jurkat-PD-1-SHP cells, 2 hours
Protocol: Example B. Src Homology Region 2 Domain-Containing Phosphatase (SHP) Assay
U2OS/PD-L1 cells (DiscoveRx Corporation) were maintained in McCoy's 5A medium with addition of 10% FBS, 0.25 μg/ml Puromycin. After removing the culture media, the cell medium was replaced with assay medium (RPMI1640 medium with 1% FBS). The U2OS/PD-L1 cells were then added in 384-well black clear bottom assay plate (CELLCOAT® Tissue Culture Plates, Greiner Bio-One) at 5000 cells per well in 20 μL assay medium. Test compounds were prepared by serial dilution in DMSO and 125 nL compound were first transferred to the 384 REMP plate well (Thermofisher) by ECHO liquid handler (Labcyte) followed with addition of 27.5 μL assay medium. 5 μL/well compounds in the assay medium were transferred to the cell plate with 0.05% DMSO in the final assay at 0.5 μM. Jurkat-PD-1-SHP cells (DiscoveRx Corporation) were cultured in RPMI1640 medium supplemented with 10% FBS, 250 μg/ml Hygromycin B, 500 μg/ml G418. After the replacement of culture media with assay medium, 5,000 Jurkat-PD-1-SHP cells in 20 μL were dispensed into each well. The assay plate was incubated at 37° C., 5% CO2 for 2 hours before 2.5 μL PathHunter reagent 1 (DiscoveRx Corporation) were added to each well. The assay plate was shaken for 1 min at 350 rpm in the dark followed with addition of 10 μL PathHunter reagent 2 (DiscoveRx Corporation). Chemiluminescent signal was recorded with TopCount reader (Perkin Elmer) after incubation at room temperature for 1 hour. Wells with DMSO were served as the positive controls and wells containing no cells were used as negative controls. IC50 determination was performed by fitting the curve of percentage of control activity versus the log of the compound concentration using the GraphPad Prism 6.0 software.

PD-1/PD-L1, sequence (Q9NZQ7 19-238): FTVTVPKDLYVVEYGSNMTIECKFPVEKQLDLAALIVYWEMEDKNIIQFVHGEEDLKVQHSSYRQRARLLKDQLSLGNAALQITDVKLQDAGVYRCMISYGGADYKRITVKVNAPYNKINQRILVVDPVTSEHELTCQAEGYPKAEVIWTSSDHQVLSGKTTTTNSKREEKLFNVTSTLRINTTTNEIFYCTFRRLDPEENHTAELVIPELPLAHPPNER

Cc1c(Nc2nc(C(F)F)nc3cc(CN4CC[C@@H](O)C4)cnc23)cccc1-c1cccc(-c2nc3cc(CN4CCC(C(=O)N(C)C)CC4)cc(C#N)c3o2)c1C [Example 25, (R)-1-((7-cyano-2-(3′-(2-(difluoromethyl)-7-((3-hydroxypyrrolidin-1-yl)methyl)pyrido[3,2-d]pyrimidin-4-ylamino)-2,2′-dimethylbiphenyl-3-yl)benzo[d]oxazol-5-yl)methyl)-N,N-dimethylpiperidine-4-carboxamide]
IC50 (PD-1/PD-L1): ≤ 10 nM | IC50 (PD-L1): 10 to 100 nM | EC50 [1]: 10 to 100 nM

CNC(=O)C1CCN(Cc2cc(C#N)c3oc(-c4cccc(-c5cccc(Nc6nc(C(F)F)nc7cc(CN8CC[C@@H](O)C8)cnc67)c5C)c4C)nc3c2)CC1 [Example 26, (R)-1-((7-cyano-2-(3′-(2-(difluoromethyl)-7-((3-hydroxypyrrolidin-1-yl)methyl)pyrido[3,2-d]pyrimidin-4-ylamino)-2,2′-dimethylbiphenyl-3-yl)benzo[d]oxazol-5-yl)methyl)-N-methylpiperidine-4-carboxamide]
IC50 (PD-1/PD-L1): ≤ 10 nM | IC50 (PD-L1): 10 to 100 nM | EC50 [1]: ≤ 10 nM

Cc1c(Nc2nc(C(F)F)nc3cc(CN4CC[C@@H](O)C4)cnc23)cccc1-c1cccc(-c2nc3cc(CN4CCC(C(=O)NCCC(=O)O)CC4)cc(C#N)c3o2)c1C [Example 27, (R)-3-(1-((7-cyano-2-(3′-(2-(difluoromethyl)-7-((3-hydroxypyrrolidin-1-yl)methyl)pyrido[3,2-d]pyrimidin-4-ylamino)-2,2′-dimethylbiphenyl-3-yl)benzo[d]oxazol-5-yl)methyl)piperidine-4-carboxamido)propanoic Acid]
IC50 (PD-1/PD-L1): ≤ 10 nM | IC50 (PD-L1): 10 to 100 nM | EC50 [1]: 10 to 100 nM

Cc1c(Nc2nc(C(F)(F)F)nc3cc(CN4CC[C@@H](O)C4)cnc23)cccc1-c1cccc(-c2nc3cc(CN4CC[C@@](C)(C(=O)O)C4)cc(C#N)c3o2)c1C [Example 21, (R)-1-((7-cyano-2-(3′-(7-(((R)-3-hydroxypyrrolidin-1-yl)methyl)-2-(trifluoromethyl)pyrido[3,2-d]pyrimidin-4-ylamino)-2,2′-dimethylbiphenyl-3-yl)benzo[d]oxazol-5-yl)methyl)-3-methylpyrrolidine-3-carboxylic Acid]
IC50 [2]: ≤ 10 nM | IC50 (PD-L1): 10 to 100 nM | EC50 [1]: 10 to 100 nM

Cc1c(Nc2nc(CO)nc3cc(CN4CC[C@@H](O)C4)cnc23)cccc1-c1cccc(-c2nc3cc(CN4CCC(C(=O)O)CC4)cc(C#N)c3o2)c1C [Example 32, (R)-1-((7-cyano-2-(3′-(2-(hydroxymethyl)-7-((3-hydroxypyrrolidin-1-yl)methyl)pyrido[3,2-d]pyrimidin-4-ylamino)-2,2′-dimethylbiphenyl-3-yl)benzo[d]oxazol-5-yl)methyl)piperidine-4-carboxylic Acid]
IC50 (PD-1/PD-L1): ≤ 10 nM | IC50 (PD-L1): 10 to 100 nM | EC50 [1]: 10 to 100 nM

Cc1c(Nc2nc(C(F)F)nc3cc(CN4CC[C@@H](O)C4)cnc23)cccc1-c1cccc(-c2nc3cc(CN4CC[C@H](C(=O)O)C4)cc(C#N)c3o2)c1C [Example 22, (S)-1-((7-cyano-2-(3′-(2-(difluoromethyl)-7-(((R)-3-hydroxypyrrolidin-1-yl)methyl)pyrido[3,2-d]pyrimidin-4-ylamino)-2,2′-dimethylbiphenyl-3-yl)benzo[d]oxazol-5-yl)methyl)pyrrolidine-3-carboxylic Acid]
IC50 (PD-1/PD-L1): ≤ 10 nM | IC50 (PD-L1): 10 to 100 nM | EC50 [1]: 10 to 100 nM

Cc1c(Nc2nc(C(F)F)nc3cc(CN4CC[C@@H](O)C4)cnc23)cccc1-c1cccc(-c2nc3cc(CN4CCC(C)(C(=O)O)CC4)cc(C#N)c3o2)c1C [Example 24, (R)-1-((7-cyano-2-(3′-(2-(difluoromethyl)-7-((3-hydroxypyrrolidin-1-yl)methyl)pyrido[3,2-d]pyrimidin-4-ylamino)-2,2′-dimethylbiphenyl-3-yl)benzo[d]oxazol-5-yl)methyl)-4-methylpiperidine-4-carboxylic Acid]
IC50 (PD-1/PD-L1): ≤ 10 nM | IC50 (PD-L1): 10 to 100 nM | EC50 [1]: 10 to 100 nM

Cc1c(Nc2nc(C(F)F)nc3cc(CN4CC[C@@H](O)C4)cnc23)cccc1-c1cccc(-c2nc3cc(CN4CC[C@](C)(C(=O)O)C4)cc(C#N)c3o2)c1C [Example 23, (S)-1-((7-cyano-2-(3′-(2-(difluoromethyl)-7-(((R)-3-hydroxypyrrolidin-1-yl)methyl)pyrido[3,2-d]pyrimidin-4-ylamino)-2,2′-dimethylbiphenyl-3-yl)benzo[d]oxazol-5-yl)methyl)-3-methylpyrrolidine-3-carboxylic Acid]
IC50 (PD-1/PD-L1): ≤ 10 nM | IC50 (PD-L1): 10 to 100 nM | EC50 [1]: ≤ 10 nM

Cc1c(Nc2nc(C(F)F)cc3cc(CN4CC[C@@H](O)C4)cnc23)cccc1-c1cccc(-c2nc3cc(CN4CC[C@@](C)(C(=O)O)C4)cc(C#N)c3o2)c1C [Example 34, (R)-1-((7-cyano-2-(3′-(6-(difluoromethyl)-3-(((R)-3-hydroxypyrrolidin-1-yl)methyl)-1,7-naphthyridin-8-ylamino)-2,2′-dimethylbiphenyl-3-yl)benzo[d]oxazol-5-yl)methyl)-3-methylpyrrolidine-3-carboxylic Acid]
IC50 (PD-1/PD-L1): ≤ 10 nM | IC50 (PD-L1): 100 to 500 nM | EC50 [1]: ≤ 10 nM
